One experiment has as its system Jurkat cells. Briefly: Jurkat cell adhesion system (PMA-stimulated adhesion to immobilized human fibronectin). Particulars: Jurkat cells on human fibronectin-coated 96-well plate, PMA stimulation, 37° C. for 45-60 minutes; read-out: IC50 (concentration which inhibited the increase in the number of adhered cells by the PMA-stimulation by 50%). The experiment is classed as cell-based. Here is the method: Human fibronectin (Becton Dickinson Biosciences) was diluted with phosphate-buffered saline (hereinafter abbreviated as PBS; Sigma) to 0.1-0.01 μg/mL, and the diluted solution was added to a 96-well plate (Becton Dickinson) at 50 μL/well, and allowed to stand overnight at 4° C. On the following day, the supernatant was removed from the plate, and then PBS containing 1% bovine serum albumin (hereinafter abbreviated as BSA; Sigma) was added thereto at 100 μL/well and incubation was performed at 37° C. for 2 hours in a CO2 incubator (Hirasawa).
The supernatant was removed from each plate and Jurkat cells suspended in RPMI-1640 (Sigma) containing 1 mg/mL BSA were added at 80 μL/well for 2.5×10^5 cells/well. The compound (B) diluted to different concentrations with RPMI-1640 containing […] BSA was immediately added at 10 μL/well, and then 100 nM phorbol myristate acetate (hereinafter abbreviated as PMA; Sigma) in RPMI-1640 containing 1 mg/mL BSA was added at 10 μL/well and the plate was incubated in a CO2 incubator at 37° C. for 45-60 minutes. […] After incubation, 50 mM glycine buffer (pH 10.4) containing 5 mM EDTA was added at 90 μL/well, and the absorbance at 405 nm was measured with an EL340 Automated Microplate Reader (BIO-TEK) to determine the adhered cell count.

The test system of experiment [1] is human peripheral blood neutrophils. Briefly: Human peripheral blood neutrophil adhesion system (PMA-stimulated adhesion to HUVEC immobilized plate). The following applies: 0.75 h; BCECF-AM labeled human neutrophils on HUVEC immobilized plate, PMA stimulation, 37° C. for 45 minutes; read-out: IC50 (concentration which inhibited the increase in the number of adhered cells by the PMA-stimulation by 50%). It counts as cell-based. The protocol: To a plastic centrifugation tube containing 100 units of heparin sodium (Shimizu Pharmaceutical) was added 25 mL of fresh blood sampled from a healthy human. After adding and mixing therewith 8 mL of physiological saline (Otsuka Pharmaceutical) containing 6% Dextran (Nacalai), the mixture was allowed to stand at room temperature for 45 minutes for sedimentation of the erythrocytes. The resultant supernatant was transferred to another plastic centrifugation tube and combined with an equivalent volume of PBS, and then centrifuged at 1600 rpm for 7 minutes at room temperature. The obtained hematocyte fraction was suspended in 4 mL of PBS, and the suspension was superposed on 4 mL of Ficoll-Paque™ PLUS (Amersham Biosciences). […]
To 6.5 mL of RPMI-1640 medium (Sigma) containing 1 mg/mL of BSA were added 0.5 mL of a suspension of BCECF-AM labeled neutrophils at 5×10^7 cells/mL stored in ice, which was mixed, and the mixture was added at 80 μL/well to a HUVEC immobilized plate. […] The supernatant was removed from the plate, which was then washed several times with RPMI-1640 at 100 μL/well, and then PBS containing 0.1% NP-40 (Calbiochem) was added thereto at 100 μL/well and the fluorescent intensity was measured with an ARVO™SX 1420 multi label counter (Wallac) to determine the number of adhered cells.

For the molecule `CC1(C)CC(c2ccccc2N2CCN(CC3CC3)CC2)CC(C)(C)C1` [compound (B), 1-Cyclopropylmethyl-4-[2-(3,3,5,5-tetramethylcyclohexyl)phenyl]piperazine methanesulfonate], the IC50 stood at 4.7 µM in the experiment on Jurkat cells and 7.1 µM in experiment [1].

The values above are taken from US20090163715A1, “Intermediate in Production of [2-(3,3,5,5-Tetramethylcyclohexyl)phenyl]Piperazine Compound” (EISAI R&D MANAGEMENT CO., LTD., priority 2005, published 2009).
